The text below walks through data of patent US20070191373A1, “Heterocyclic compounds for use in the treatment of viral infections” (priority 2003, published 2007).

Usually CC50 stands for the concentration at which the toxic effect on the cells reaches its halfway point. The low end stands for greater toxicity to the cells, the high end for lower toxicity to the cells.

One data set concerns CMV strain AD169. Nature of the data set: CMV strain AD169 induced cytopathicity in HEL cells. Type of data set: cell-based, cytomegalovirus (CMV). The conditions noted are these: Human betaherpesvirus 5, AD169, 168 h, Table 2, 7 days post infection, vs untreated control. As to the method:
(§1) Products where X═Y═N, Z=Q=O, U═V═CH and R^1, R^4 and R^8 are as given in Tables 1 and 2 below embodying the present invention were tested in vitro in tissue cultures for toxicity and for potent antiviral actions with respect to cytomegalovirus (CMV).
EC50/μm CMV-AD169 is the drug concentration in μM required to reduce by 50% CMV strain AD169 induced cytopathicity in human embryonic lung fibroblast (HEL) cells measured 7 days post infection compared to untreated control.
(§2) Further details of the methodology employed can be found in McGuigan et al. J. Med. Chem., 1999, 42, 4479-4484.
(In general: Protection from cytopathic effect is a common read-out in antiviral testing.)

The nature of data set [1]: Preliminary rodent trial, bioavailability and half life after i.p. dosing. Type of data set: in vivo.
The nature of data set [2]: Toxicity in tissue culture, reduction of cell number. Type of data set: cell-based. The note with it: human, human embryonic lung fibroblast (HEL) cells; Table 2; concentration reducing cell number by 50%. The method, then:
as §1
CC50/μM is the compound concentration required to reduce the cell number by 50%.
as §2

Another data set concerns CMV strain Davis. Kind of data set: CMV strain Davis induced cytopathicity in HEL cells. Type of data set: cell-based, cytomegalovirus (CMV). The note with it: Human betaherpesvirus 5, 168 h, Table 2, 7 days post infection, vs untreated control, read-out: EC50/μM 2 CMV Davis. The method, then: as §1
EC50/μM CMV Davis is the drug concentration in μM required to reduce by 50% CMV strain Davis induced cytopathicity in human embryonic lung fibroblast (HEL) cells measured 7 days post infection compared to untreated control.
as §2

On to `CCCCCCCc1cc2cnc(OC3CCCC3)nc2o1` [Cf2161, 6-Heptyl-2-cyclopentyloxy-furo[2,3-d]pyrimidine], for which, where the note is “50 mg/kg/day”, the “visible in vivo toxicity” value is given as “no visible in vivo toxicity”. The “histology: toxicity against brain, thymus, liver, lungs, kidney, breast, testi, ovum and spleen tissue” value (in vivo) was “no detectable toxicity”. In addition, the EC50 came out at 3 µM in the data set with CMV strain AD169 and 5 µM in the data set on CMV strain Davis. Also, the bioavailability result in data set [1] was “significant”. The CC50 in data set [2] came out at 132 µM.
